In ChEMBL document CHEMBL1201862, “PubChem BioAssay data set” (2004):
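Results reflect a 48-hour exposure of cells in 96-well plates to compound at five concentrations. GI50 = concentration required for 50% inhibition of growth.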 Calls of active or inactive are those of the source. Rule as the data show it: active = GI50 up to about 1.1 µM and inactive = higher. Where a SMILES comes first, the peptide text is derived from it. The star is where a group is joined. Boc = CC(C)(C)OC(=O)*

What was measured:
Experiment in all cases: DTP human tumour cell line panel, 48 h
UACC-62 = test system: UACC-62
SW-620 = test system: SW-620
NCI/ADR-RES = test system: NCI/ADR-RES
HCT-116 = test system: HCT-116
OVCAR-5 = test system: OVCAR-5
DU-145 = test system: DU-145
HOP-92 = test system: HOP-92
SF-539 = test system: SF-539
K562 = test system: K562
EKVX = test system: EKVX
SF-295 = test system: SF-295
SK-OV-3 = test system: SK-OV-3
M14 = test system: M14
SK-MEL-2 = test system: SK-MEL-2
RPMI-8226 = test system: RPMI-8226
NCI-H460 = test system: NCI-H460
OVCAR-8 = test system: OVCAR-8
SNB-75 = test system: SNB-75
Malme-3M = test system: Malme-3M
RXF 393 = test system: RXF 393

Measured: GI50

Nc1cc(N2CCOCC2)nc(=O)n1-c1ccc(Cl)cc1
inactive: UACC-62 > 100 µM | SW-620 > 100 µM | NCI/ADR-RES > 100 µM | HCT-116 > 100 µM | OVCAR-5 > 100 µM | DU-145 > 100 µM | HOP-92 > 100 µM | SF-539 > 100 µM | K562 > 100 µM | EKVX > 100 µM | SF-295 > 100 µM | SK-OV-3 > 100 µM | M14 > 100 µM | SK-MEL-2 > 100 µM | RPMI-8226 > 100 µM | NCI-H460 > 100 µM | OVCAR-8 > 100 µM | SNB-75 > 100 µM

COc1ccc(Cn2c(=O)c(OS(=O)(=O)C(F)(F)F)c(C)c3cc4ccccc4cc32)cc1
inactive: UACC-62 > 100 µM | SW-620 > 100 µM | NCI/ADR-RES > 100 µM | HCT-116 > 100 µM | Malme-3M 86.1 µM | OVCAR-5 > 100 µM | DU-145 > 100 µM | SF-539 > 100 µM | K562 > 100 µM | EKVX > 100 µM | SF-295 > 100 µM | SK-OV-3 > 100 µM | M14 > 100 µM | SK-MEL-2 > 100 µM | NCI-H460 > 100 µM | OVCAR-8 > 100 µM | SNB-75 > 100 µM | RXF 393 > 100 µM

CC(=O)Nc1ccc2cc(C#N)c(=O)[nH]c2n1
inactive: SW-620 > 100 µM | NCI/ADR-RES > 100 µM | HCT-116 > 100 µM | Malme-3M > 100 µM | OVCAR-5 > 100 µM | HOP-92 > 100 µM | SF-539 > 100 µM | K562 > 100 µM | EKVX > 100 µM | SF-295 > 100 µM | SK-OV-3 > 100 µM | M14 > 100 µM | SK-MEL-2 > 100 µM | RPMI-8226 > 100 µM | NCI-H460 > 100 µM | OVCAR-8 > 100 µM | SNB-75 > 100 µM | RXF 393 > 100 µM

NC1CC(=O)c2cc(Br)sc21 (centres undefined)
inactive: UACC-62 > 100 µM | SW-620 > 100 µM | NCI/ADR-RES > 100 µM | HCT-116 > 100 µM | Malme-3M > 100 µM | OVCAR-5 > 100 µM | DU-145 > 100 µM | SF-539 > 100 µM | K562 > 100 µM | EKVX > 100 µM | SK-OV-3 > 100 µM | M14 > 100 µM | SK-MEL-2 > 100 µM | RPMI-8226 > 100 µM | NCI-H460 > 100 µM | OVCAR-8 > 100 µM | SNB-75 > 100 µM | RXF 393 > 100 µM

Cc1ccc(NC(=O)CC2SC(Nc3ccc(Cl)cc3)=NC2=O)cc1C (centres undefined)
inactive: UACC-62 18.3 µM | SW-620 7.08 µM | HCT-116 18.1 µM | Malme-3M 18.5 µM | OVCAR-5 19 µM | HOP-92 14.4 µM | SF-539 20.8 µM | K562 3.75 µM | EKVX 17.5 µM | SF-295 > 44 µM | SK-OV-3 > 49 µM | M14 16.9 µM | SK-MEL-2 12.7 µM | RPMI-8226 6.47 µM | NCI-H460 13.5 µM | OVCAR-8 18 µM | SNB-75 17.7 µM | RXF 393 17.1 µM

CC1(C)CS(=O)(=O)CC(C)(C)C(=N/N)/C1=N\N
inactive: UACC-62 > 100 µM | SW-620 > 100 µM | NCI/ADR-RES > 100 µM | HCT-116 > 100 µM | Malme-3M > 100 µM | OVCAR-5 > 100 µM | DU-145 > 100 µM | HOP-92 > 100 µM | SF-539 > 100 µM | K562 > 100 µM | EKVX > 100 µM | SF-295 > 100 µM | SK-OV-3 > 100 µM | M14 > 100 µM | SK-MEL-2 > 100 µM | NCI-H460 > 100 µM | OVCAR-8 > 100 µM | SNB-75 > 100 µM

CSc1ncnc2c1cnn2CCCCO
inactive: UACC-62 > 100 µM | SW-620 > 100 µM | HCT-116 > 100 µM | Malme-3M > 100 µM | OVCAR-5 > 100 µM | DU-145 > 100 µM | HOP-92 > 100 µM | SF-539 > 100 µM | K562 > 100 µM | EKVX > 100 µM | SF-295 > 100 µM | SK-OV-3 > 100 µM | M14 > 100 µM | SK-MEL-2 > 100 µM | RPMI-8226 > 100 µM | NCI-H460 > 100 µM | RXF 393 > 100 µM

O=C(O)C1Cc2ccccc2OC1=O (centres undefined)
inactive: UACC-62 > 100 µM | SW-620 > 100 µM | NCI/ADR-RES > 100 µM | HCT-116 > 100 µM | Malme-3M > 100 µM | OVCAR-5 > 100 µM | DU-145 > 100 µM | SF-539 > 100 µM | K562 > 100 µM | EKVX > 100 µM | SF-295 > 100 µM | SK-OV-3 > 100 µM | M14 > 100 µM | SK-MEL-2 > 100 µM | RPMI-8226 > 100 µM | NCI-H460 > 100 µM | OVCAR-8 > 100 µM | RXF 393 > 100 µM

CC(C)=CCN1CC(C)C(=O)Nc2ccccc21 (centres undefined)
inactive: SW-620 > 100 µM | HCT-116 > 100 µM | Malme-3M > 100 µM | OVCAR-5 > 100 µM | DU-145 > 100 µM | HOP-92 49 µM | SF-539 > 100 µM | K562 > 100 µM | EKVX > 100 µM | SF-295 > 100 µM | SK-OV-3 > 100 µM | M14 > 100 µM | SK-MEL-2 > 100 µM | RPMI-8226 > 100 µM | NCI-H460 93.3 µM | OVCAR-8 78.9 µM | RXF 393 > 100 µM

O=C1Oc2ccccc2C(=O)/C1=C/N1C(=O)CNC1=S
inactive: UACC-62 > 100 µM | SW-620 > 100 µM | NCI/ADR-RES > 100 µM | HCT-116 > 100 µM | OVCAR-5 > 100 µM | DU-145 > 100 µM | SF-539 > 100 µM | K562 > 100 µM | EKVX > 100 µM | SF-295 > 100 µM | SK-OV-3 95.1 µM | M14 > 100 µM | SK-MEL-2 > 100 µM | RPMI-8226 > 100 µM | NCI-H460 63 µM | OVCAR-8 > 100 µM | RXF 393 26.9 µM

Cc1cc2c(c(S(=O)(=O)c3ccc(Cl)cc3[N+](=O)[O-])c1)NCCC2
inactive: UACC-62 8.11 µM | SW-620 > 100 µM | NCI/ADR-RES 37.6 µM | Malme-3M > 100 µM | OVCAR-5 > 100 µM | DU-145 94.4 µM | SF-539 > 100 µM | EKVX > 100 µM | SF-295 53.2 µM | SK-OV-3 > 100 µM | M14 41.9 µM | SK-MEL-2 > 100 µM | RPMI-8226 58.5 µM | NCI-H460 74.1 µM | OVCAR-8 > 100 µM | SNB-75 > 100 µM | RXF 393 > 100 µM

COc1cc2c(c(OC)c1)C(C)=NC(C)C2 (centres undefined)
inactive: UACC-62 > 100 µM | SW-620 > 100 µM | HCT-116 51.2 µM | Malme-3M > 100 µM | DU-145 > 100 µM | SF-539 > 100 µM | K562 > 100 µM | EKVX > 100 µM | SF-295 > 100 µM | SK-OV-3 > 100 µM | M14 > 100 µM | RPMI-8226 > 100 µM | NCI-H460 > 100 µM | OVCAR-8 > 100 µM

CNC(=O)CNC(=O)C(NC(=O)CNC(=O)C1CCCN1C(=O)C(C)NC(=O)C(NC(C)=O)C(C)C)C(C)C (centres undefined) (Ac-VAPGVG-NHMe; configuration not given here)
inactive: UACC-62 > 100 µM | SW-620 > 100 µM | NCI/ADR-RES > 100 µM | HCT-116 > 100 µM | Malme-3M > 100 µM | OVCAR-5 > 100 µM | DU-145 > 100 µM | HOP-92 > 100 µM | SF-539 > 100 µM | K562 > 100 µM | EKVX > 100 µM | SF-295 > 100 µM | SK-OV-3 > 100 µM | M14 > 100 µM | SK-MEL-2 > 100 µM | RPMI-8226 > 100 µM | NCI-H460 > 100 µM | OVCAR-8 > 100 µM

CNC(=O)CNC(=O)C(NC(=O)CNC(=O)C1CCCN1C(=O)C(C)NC(=O)C(NC(=O)OC(C)(C)C)C(C)C)C(C)C (centres undefined) (Boc-VAPGVG-NHMe; configuration not given here)
inactive: UACC-62 > 100 µM | SW-620 > 100 µM | NCI/ADR-RES > 100 µM | HCT-116 > 100 µM | Malme-3M > 100 µM | OVCAR-5 > 100 µM | DU-145 > 100 µM | HOP-92 > 100 µM | SF-539 > 100 µM | K562 > 100 µM | EKVX > 100 µM | SF-295 > 100 µM | SK-OV-3 > 100 µM | M14 > 100 µM | SK-MEL-2 > 100 µM | RPMI-8226 > 100 µM | NCI-H460 > 100 µM | OVCAR-8 > 100 µM | SNB-75 > 100 µM

CC(C)=CC[C@H]1C[C@]2(CC=C(C)C)C(=O)[C@@](CC=C(C)C)(C(=O)C(C(=O)c3ccccc3)=C2O)C1(C)C [6-EPI-CLUSIANONE]
inactive: UACC-62 3.44 µM | SW-620 6.28 µM | NCI/ADR-RES 5.33 µM | HCT-116 3.63 µM | Malme-3M 6.49 µM | OVCAR-5 4.98 µM | HOP-92 4.31 µM | SF-539 11.6 µM | K562 3.87 µM | EKVX 5.05 µM | SF-295 4.27 µM | SK-OV-3 5.32 µM | M14 6.65 µM | SK-MEL-2 2.67 µM | RPMI-8226 3.37 µM | NCI-H460 3.3 µM | OVCAR-8 5.78 µM | SNB-75 7.28 µM | RXF 393 6.75 µM
